Data taken from PMC8528214 (RSC Medicinal Chemistry, 2021).

Legend:
MMP-14 = MMP-14 (Homo sapiens, UniProt P50281); assay: MMP in vitro inhibition assay, MMP-14; assay type: biochemical
HEK293 = conditions: at 100 μM; cited from earlier work
collagenase H (ColH) = conditions: cited from earlier work; for ColH inhibitory activity: tested in their thiocarbamate form
MMP-1 = molecular target: T1, MMP-1 (Homo sapiens, UniProt P03956); assay: MMP in vitro inhibition assay, MMP-1; assay type: biochemical
T1 sequence (P03956 100-469): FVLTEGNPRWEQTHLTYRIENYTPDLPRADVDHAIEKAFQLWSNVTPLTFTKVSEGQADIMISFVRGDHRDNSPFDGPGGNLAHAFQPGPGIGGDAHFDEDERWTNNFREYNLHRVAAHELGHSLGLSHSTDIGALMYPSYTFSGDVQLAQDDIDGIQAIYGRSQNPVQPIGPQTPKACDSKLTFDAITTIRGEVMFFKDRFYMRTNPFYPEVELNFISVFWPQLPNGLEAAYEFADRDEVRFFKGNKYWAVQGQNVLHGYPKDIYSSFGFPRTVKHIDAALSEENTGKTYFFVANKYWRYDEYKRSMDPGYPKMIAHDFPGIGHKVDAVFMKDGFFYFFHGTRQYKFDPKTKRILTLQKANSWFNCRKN

MMP-2 = molecular target: T2, MMP-2 (Homo sapiens, UniProt P08253); assay: MMP in vitro inhibition assay, MMP-2; assay type: biochemical
T2 sequence (P08253 110-660): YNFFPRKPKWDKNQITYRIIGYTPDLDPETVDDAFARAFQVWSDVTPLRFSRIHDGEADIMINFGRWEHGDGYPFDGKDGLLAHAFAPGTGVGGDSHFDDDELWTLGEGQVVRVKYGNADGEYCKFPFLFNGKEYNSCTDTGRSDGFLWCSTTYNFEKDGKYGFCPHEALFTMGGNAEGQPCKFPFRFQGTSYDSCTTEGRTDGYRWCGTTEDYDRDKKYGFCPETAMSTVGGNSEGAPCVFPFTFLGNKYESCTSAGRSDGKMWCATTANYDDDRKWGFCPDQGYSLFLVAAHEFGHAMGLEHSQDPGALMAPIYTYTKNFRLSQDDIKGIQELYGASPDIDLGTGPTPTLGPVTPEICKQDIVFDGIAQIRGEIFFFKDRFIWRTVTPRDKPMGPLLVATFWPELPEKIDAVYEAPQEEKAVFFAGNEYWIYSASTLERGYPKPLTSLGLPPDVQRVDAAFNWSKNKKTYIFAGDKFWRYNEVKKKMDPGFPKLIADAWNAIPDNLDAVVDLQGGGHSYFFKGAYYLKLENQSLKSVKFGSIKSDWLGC

MMP-3 = MMP-3 (Homo sapiens, UniProt P08254); assay: MMP in vitro inhibition assay, MMP-3; assay type: biochemical
Sequence of MMP-3 (P08254 100-477): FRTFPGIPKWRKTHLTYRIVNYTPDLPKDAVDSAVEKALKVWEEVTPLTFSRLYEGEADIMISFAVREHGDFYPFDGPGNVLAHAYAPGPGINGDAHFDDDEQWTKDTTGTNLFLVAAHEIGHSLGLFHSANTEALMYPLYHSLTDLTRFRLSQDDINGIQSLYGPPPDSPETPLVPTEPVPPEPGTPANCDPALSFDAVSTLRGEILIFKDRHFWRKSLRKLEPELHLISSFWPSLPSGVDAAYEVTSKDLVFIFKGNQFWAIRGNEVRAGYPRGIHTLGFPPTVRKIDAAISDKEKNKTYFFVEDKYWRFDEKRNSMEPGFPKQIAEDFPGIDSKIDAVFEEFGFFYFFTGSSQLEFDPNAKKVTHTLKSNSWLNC

MMP-8 = MMP-8 (Homo sapiens, UniProt P22894); assay: MMP in vitro inhibition assay, MMP-8; assay type: biochemical
Sequence of MMP-8 (P22894 101-467): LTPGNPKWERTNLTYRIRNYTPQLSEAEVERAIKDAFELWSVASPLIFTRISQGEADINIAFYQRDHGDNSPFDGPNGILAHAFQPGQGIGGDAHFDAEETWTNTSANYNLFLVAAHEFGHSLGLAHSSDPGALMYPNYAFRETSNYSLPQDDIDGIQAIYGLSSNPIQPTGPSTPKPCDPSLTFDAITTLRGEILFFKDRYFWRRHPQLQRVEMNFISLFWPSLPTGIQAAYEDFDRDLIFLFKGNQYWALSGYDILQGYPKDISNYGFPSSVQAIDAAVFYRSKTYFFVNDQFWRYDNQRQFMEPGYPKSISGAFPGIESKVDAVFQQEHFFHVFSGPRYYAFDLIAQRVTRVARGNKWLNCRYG

HDAC-3 = HDAC-3 (Homo sapiens, UniProt O15379); assay type: biochemical
Sequence of HDAC-3 (O15379 whole entry): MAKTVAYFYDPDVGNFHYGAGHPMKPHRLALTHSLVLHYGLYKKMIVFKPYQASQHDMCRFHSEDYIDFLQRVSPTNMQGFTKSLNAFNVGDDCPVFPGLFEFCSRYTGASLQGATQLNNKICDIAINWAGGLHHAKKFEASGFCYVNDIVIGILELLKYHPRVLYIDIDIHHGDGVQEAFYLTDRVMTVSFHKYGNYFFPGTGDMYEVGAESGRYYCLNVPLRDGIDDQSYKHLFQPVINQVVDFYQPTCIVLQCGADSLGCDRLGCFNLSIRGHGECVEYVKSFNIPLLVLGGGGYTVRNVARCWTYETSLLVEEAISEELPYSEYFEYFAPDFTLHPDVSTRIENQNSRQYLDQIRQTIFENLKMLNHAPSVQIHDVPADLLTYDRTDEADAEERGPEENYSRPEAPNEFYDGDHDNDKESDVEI
Sequence of HDAC-3 (Q9Y618 395-489 partner limits assumed): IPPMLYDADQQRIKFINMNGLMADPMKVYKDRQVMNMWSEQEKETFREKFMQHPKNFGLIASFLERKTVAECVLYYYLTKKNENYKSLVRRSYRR

HDAC-8 = molecular target: T3, HDAC-8 (Homo sapiens, UniProt Q9BY41); assay: HDAC in vitro inhibition assay; assay type: biochemical
T3 sequence (Q9BY41 1-377): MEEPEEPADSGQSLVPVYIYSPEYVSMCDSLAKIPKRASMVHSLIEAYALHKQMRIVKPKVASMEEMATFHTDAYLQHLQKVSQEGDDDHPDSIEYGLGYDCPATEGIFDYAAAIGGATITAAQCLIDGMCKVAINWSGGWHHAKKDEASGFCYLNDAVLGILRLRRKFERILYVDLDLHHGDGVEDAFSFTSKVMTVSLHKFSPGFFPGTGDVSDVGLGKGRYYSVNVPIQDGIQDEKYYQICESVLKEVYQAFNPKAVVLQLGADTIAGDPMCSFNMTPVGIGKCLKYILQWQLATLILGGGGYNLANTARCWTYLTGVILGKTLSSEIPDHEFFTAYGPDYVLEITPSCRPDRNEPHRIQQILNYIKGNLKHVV

A549 = conditions: at 100 μM; cited from earlier work
HepG2 = conditions: at 100 μM; cited from earlier work
MMP-7 = molecular target: T4, MMP-7 (Homo sapiens, UniProt P09237); assay: MMP in vitro inhibition assay, MMP-7; assay type: biochemical
T4 sequence (P09237 95-267): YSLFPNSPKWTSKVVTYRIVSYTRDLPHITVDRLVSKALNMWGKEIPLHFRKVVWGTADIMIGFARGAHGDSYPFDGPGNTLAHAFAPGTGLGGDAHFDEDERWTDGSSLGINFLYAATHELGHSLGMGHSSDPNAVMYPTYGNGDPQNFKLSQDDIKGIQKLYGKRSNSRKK

[1] = test system: Galleria mellonella larvae infection model; conditions: cited from earlier work
zebrafish embryos = conditions: cited from earlier work
[2] = test system: NDM-1-expressing K. pneumoniae (T2301); assay: Growth inhibition assay; conditions: imipenem alone at 8 μg mL−1 (0.5× MIC)

## O=C(CS)Nc1ccc(Cl)c(Cl)c1 [Compound 1]
MMP-14; 100 μM
  inhibition at 100 μM, MMP-14: no inhibition
MMP-14; read-out: inhibition at 100 μM, MMP-14
  inhibition at 100 µM: ≤ 10%
HEK293
  cytotoxicity against HEK293: did not show any cytotoxicity
Collagenase H (ColH)
  ColH inhibitory activity: micromolar activities
MMP-1; 100 μM
  inhibition at 100 μM, MMP-1: no inhibition
MMP-1; read-out: inhibition at 100 μM, MMP-1
  inhibition at 100 µM: ≤ 10%
MMP-2; 100 μM
  inhibition at 100 μM, MMP-2: no inhibition
MMP-2; read-out: inhibition at 100 μM, MMP-2
  inhibition at 100 µM: ≤ 10%
MMP-3; 100 μM
  inhibition at 100 μM, MMP-3: no inhibition
MMP-3; read-out: inhibition at 100 μM, MMP-3
  inhibition at 100 µM: ≤ 10%
MMP-8; 100 μM
  inhibition at 100 μM, MMP-8: no inhibition
MMP-8; read-out: inhibition at 100 μM, MMP-8
  inhibition at 100 µM: ≤ 10%
HDAC-3
  inhibition at 100 μM, HDAC-3: no inhibition
HDAC-8
  inhibition at 100 μM, HDAC-8: no inhibition
A549
  cytotoxicity against A549: did not show any cytotoxicity
HepG2
  cytotoxicity against HepG2: did not show any cytotoxicity
MMP-7; 100 μM
  inhibition at 100 μM, MMP-7: no inhibition
MMP-7; read-out: inhibition at 100 μM, MMP-7
  inhibition at 100 µM: ≤ 10%
[1]
  in vivo efficacy: in vivo efficacy
Zebrafish embryos
  maximum tolerated concentration (MTC): 10 µM

## O=C(CS)Nc1ccccc1Cl [Compound 26]
Collagenase H (ColH)
  ColH inhibitory activity: micromolar activities

## CC(=O)c1ccc(NC(=O)CS)cc1 [Compound 28]
Collagenase H (ColH)
  ColH inhibitory potency: nanomolar

## C[C@@H](O)[C@H]1C(=O)N2C(C(=O)O)=C(SCCNC=N)C[C@H]12 [imipenem]
[2]
  Growth of imipenem-treated bacteria vs imipenem-free control after 24 hours: no relevant differences
